Assays:
Assay type in all cases: in vivo
[1] = system: pigweed (Amaranthus retroflexus); experiment: Test A postemergence, pigweed; conditions: visual injury, 0 to 100 scale (0 no effect, 100 complete control), approximately 10 days
Procedure, shortened: (§1)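 Visual injury on a 0 to 100 scale, about 10 days post-spray in the greenhouse. Postemergence plants measured 2–10 cm at one to two leaves; preemergence pots received a directed soil spray. Soil was a loam–sand blend.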

[2] = system: ragweed (common ragweed, Ambrosia elatior); experiment: Test A postemergence, ragweed; conditions: visual injury, 0 to 100 scale (0 no effect, 100 complete control), approximately 10 days
Procedure, shortened: as §1

[3] = system: barnyardgrass (Echinochloa crus-galli); experiment: Test A preemergence, barnyardgrass; conditions: 0 to 100 scale (0 no effect, 100 complete control)
Procedure, shortened: as §1

kochia (Kochia scoparia) [4] = experiment: Test A postemergence, kochia; conditions: visual injury, 0 to 100 scale (0 no effect, 100 complete control), approximately 10 days
Procedure, shortened: as §1

[5] = system: barnyardgrass (Echinochloa crus-galli); experiment: Test A postemergence, barnyardgrass; conditions: visual injury, 0 to 100 scale (0 no effect, 100 complete control), approximately 10 days
Procedure, shortened: as §1

[6] = system: galium (catchweed bedstraw, Galium aparine); experiment: Test A postemergence, galium; conditions: visual injury, 0 to 100 scale (0 no effect, 100 complete control), approximately 10 days
Procedure, shortened: as §1

rice (Oryza sativa) = experiment: Test B flooded paddy test, rice; conditions: applied to paddy water, visual rating after 13 to 15 days, scale 0 (no effect) to 100 (complete control)
Source text: (§2) At time of treatment, test pots were flooded to 3 cm above the soil surface, treated by application of test compounds directly to the paddy water, and then maintained at that water depth for the duration of the test. Treated plants and controls were maintained in a greenhouse for 13 to 15 days, after which time all species were compared to controls and visually evaluated. […] A dash (-) response means no test result.

[7] = system: pigweed (Amaranthus retroflexus); experiment: Test A preemergence, pigweed; conditions: 0 to 100 scale (0 no effect, 100 complete control)
Procedure, shortened: as §1

[8] = system: wheat (Triticum aestivum); experiment: Test A postemergence, wheat; conditions: visual injury, 0 to 100 scale (0 no effect, 100 complete control), approximately 10 days
Procedure, shortened: as §1

[9] = system: foxtail, giant (Setaria faberii); experiment: Test A postemergence, giant foxtail; conditions: visual injury, 0 to 100 scale (0 no effect, 100 complete control), approximately 10 days
Procedure, shortened: as §1

[10] = system: ryegrass, Italian (Lolium multiflorum); experiment: Test A postemergence, Italian ryegrass; conditions: visual injury, 0 to 100 scale (0 no effect, 100 complete control), approximately 10 days
Procedure, shortened: as §1

[11] = system: foxtail, giant (Setaria faberii); experiment: Test A preemergence, giant foxtail; conditions: 0 to 100 scale (0 no effect, 100 complete control)
Procedure, shortened: as §1

[12] = system: sedge, umbrella (small-flower umbrella sedge, Cyperus difformis); experiment: Test B flooded paddy test, umbrella sedge; conditions: applied to paddy water, visual rating after 13 to 15 days, scale 0 (no effect) to 100 (complete control)
Source text: as §2

[13] = system: ducksalad (Heteranthera limosa); experiment: Test B flooded paddy test, ducksalad; conditions: applied to paddy water, visual rating after 13 to 15 days, scale 0 (no effect) to 100 (complete control)
Source text: as §2

corn (Zea mays) = experiment: Test A postemergence, corn; conditions: visual injury, 0 to 100 scale (0 no effect, 100 complete control), approximately 10 days
Procedure, shortened: as §1

[14] = system: barnyardgrass (Echinochloa crus-galli); experiment: Test B flooded paddy test, barnyardgrass; conditions: applied to paddy water, visual rating after 13 to 15 days, scale 0 (no effect) to 100 (complete control)
Source text: as §2

[15] = system: blackgrass (Alopecurus myosuroides); experiment: Test A postemergence, blackgrass; conditions: visual injury, 0 to 100 scale (0 no effect, 100 complete control), approximately 10 days
Procedure, shortened: as §1

[16] = system: ragweed (common ragweed, Ambrosia elatior); experiment: Test A preemergence, ragweed; conditions: 0 to 100 scale (0 no effect, 100 complete control)
Procedure, shortened: as §1

kochia (Kochia scoparia) [17] = experiment: Test A preemergence, kochia; conditions: 0 to 100 scale (0 no effect, 100 complete control)
Procedure, shortened: as §1

[18] = system: ryegrass, Italian (Lolium multiflorum); experiment: Test A preemergence, Italian ryegrass; conditions: 0 to 100 scale (0 no effect, 100 complete control)
Procedure, shortened: as §1

| SMILES | Plant response rating, Pigweed ([1]; 125 g ai/ha) | Plant response rating, Pigweed ([1]; 500 g ai/ha) | Plant response rating, Ragweed ([2]; 125 g ai/ha) | Plant response rating, Ragweed ([2]; 500 g ai/ha) | Plant response rating, Barnyardgrass ([3]; 125 g ai/ha) | Plant response rating, Barnyardgrass ([3]; 500 g ai/ha) | Plant response rating, Kochia (kochia (Kochia scoparia) [4]; 125 g ai/ha) | Plant response rating, Kochia (kochia (Kochia scoparia) [4]; 500 g ai/ha) | Plant response rating, Barnyardgrass ([5]; 125 g ai/ha) | Plant response rating, Barnyardgrass ([5]; 500 g ai/ha) | Plant response rating, Galium ([6]; 125 g ai/ha) | Plant response rating, Galium ([6]; 500 g ai/ha) | Plant response rating, Pigweed ([7]; 125 g ai/ha) | Plant response rating, Pigweed ([7]; 500 g ai/ha) | Plant response rating, Wheat ([8]; 125 g ai/ha) | Plant response rating, Wheat ([8]; 500 g ai/ha) | Plant response rating, Foxtail, Giant ([9]; 125 g ai/ha) | Plant response rating, Foxtail, Giant ([9]; 500 g ai/ha) | Plant response rating, Ryegrass, Italian ([10]; 125 g ai/ha) | Plant response rating, Ryegrass, Italian ([10]; 500 g ai/ha) | other results |
| --- | --- | --- | --- | --- | --- | --- | --- | --- | --- | --- | --- | --- | --- | --- | --- | --- | --- | --- | --- | --- | --- |
| O=C1NCC(c2cccc(Oc3ccccn3)c2)C1C(=O)Nc1ccccc1F (stereo not drawn) [Compound 34, N-(2-Fluorophenyl)-2-oxo-4-[3-(2-pyridinyloxy)phenyl]-3-pyrrolidinecarboxamide] | 0 | 0 | 0 | 0 | 20 | 90 | 0 | 0 | 30 | 60 | 20 | 50 | 0 | 0 | 0 | 0 | 30 | 80 | 0 | 30 | Plant response rating, Rice (Flood) (rice (Oryza sativa); 500 g ai/ha): 0; Plant response rating, Foxtail, Giant ([11]; 125 g ai/ha): 70; Plant response rating, Foxtail, Giant ([11]; 500 g ai/ha): 90; Plant response rating, Sedge, Umbrella (Flood) ([12]; 500 g ai/ha): 0; Plant response rating, Ducksalad (Flood) ([13]; 500 g ai/ha): 85; Plant response rating, Corn (corn (Zea mays); 125 g ai/ha): 0; Plant response rating, Corn (corn (Zea mays); 500 g ai/ha): 0; Plant response rating, Barnyardgrass (Flood) ([14]; 500 g ai/ha): 20; Plant response rating, Blackgrass ([15]; 125 g ai/ha): 0; Plant response rating, Blackgrass ([15]; 500 g ai/ha): 20; Plant response rating, Ragweed ([16]; 125 g ai/ha): 0; Plant response rating, Ragweed ([16]; 500 g ai/ha): 0; Plant response rating, Kochia (kochia (Kochia scoparia) [17]; 125 g ai/ha): 0; Plant response rating, Kochia (kochia (Kochia scoparia) [17]; 500 g ai/ha): 0; Plant response rating, Ryegrass, Italian ([18]; 125 g ai/ha): 0; Plant response rating, Ryegrass, Italian ([18]; 500 g ai/ha): 0 |
| O=C1NCC(c2cccc(Oc3ccc(C(F)(F)F)cn3)c2)C1C(=O)Nc1cccc(F)c1F (single isomer, unassigned) [Compound 47] | 60 | 70 | 0 | 0 | 50 | 80 | 0 | 60 | 70 | 90 | 60 | 70 | 0 | 50 | 0 | 30 | 60 | 80 | 0 | 30 | Plant response rating, Rice (Flood) (rice (Oryza sativa); 250 g ai/ha): 0; Plant response rating, Foxtail, Giant ([11]; 125 g ai/ha): 90; Plant response rating, Foxtail, Giant ([11]; 500 g ai/ha): 90; Plant response rating, Sedge, Umbrella (Flood) ([12]; 250 g ai/ha): 0; Plant response rating, Ducksalad (Flood) ([13]; 250 g ai/ha): 0; Plant response rating, Corn (corn (Zea mays); 125 g ai/ha): 20; Plant response rating, Corn (corn (Zea mays); 500 g ai/ha): 80; Plant response rating, Barnyardgrass (Flood) ([14]; 250 g ai/ha): 0; Plant response rating, Blackgrass ([15]; 125 g ai/ha): 0; Plant response rating, Blackgrass ([15]; 500 g ai/ha): 20; Plant response rating, Ragweed ([16]; 125 g ai/ha): 0; Plant response rating, Ragweed ([16]; 500 g ai/ha): 60; Plant response rating, Kochia (kochia (Kochia scoparia) [17]; 125 g ai/ha): 0; Plant response rating, Kochia (kochia (Kochia scoparia) [17]; 500 g ai/ha): 0; Plant response rating, Ryegrass, Italian ([18]; 125 g ai/ha): 0; Plant response rating, Ryegrass, Italian ([18]; 500 g ai/ha): 70 |

— patent US10405547B2, “Substituted cyclic amides as herbicides” (FMC Corporation, priority 2015, dated 2019)
